Source: the supplement of paper PMC13207355

Experiments:
Conditions in all cases: exposure time: 72 h
E21 [1] = patient-derived glioblastoma stem cells of mesenchymal subtype; assay: phenotypic distance (Euclidean, principal components) from DMSO controls (arbitrary units); higher = stronger morphological change
E34 [2] = patient-derived glioblastoma stem cells of proneural subtype; assay: as above
E13 [3] = patient-derived glioblastoma stem cells of classical subtype; assay: as above
E57 [4] = patient-derived glioblastoma stem cells of mesenchymal subtype; assay: as above
E28 [5] = patient-derived glioblastoma stem cells of classical subtype; assay: as above
E31 [6] = patient-derived glioblastoma stem cells of proneural subtype; assay: as above
FT3469 [7] = normal neural stem cell line; assay: as above
E21 [8] = assay: surviving fraction (nuclei count normalised to DMSO); higher = more cells surviving (less toxic)
E34 [9] = assay: as above
E13 [10] = assay: as above
E57 [11] = assay: as above
E28 [12] = assay: as above
E31 [13] = assay: as above
FT3469 [14] = assay: as above
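Throughout, for phenotypic distance (Euclidean, principal components) from DMSO controls: cell Painting imaging in 384-well plates, CellProfiler features reduced to at least 20 principal components, Euclidean distance versus same-plate DMSO vehicle wells (0.1% v/v), median over six images per well.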
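Throughout, for surviving fraction (nuclei count normalised to DMSO): nuclei counted by high-content imaging of Hoechst-stained cells in laminin-coated 384-well plates, relative to 0.1% DMSO vehicle wells, with staurosporine as cell-death control.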

C[C@@H](Oc1cc(-c2cnn(C3CCNCC3)c2)cnc1N)c1c(Cl)ccc(F)c1Cl [Crizotinib]
Conditions	phenotypic distance	surviving fraction
E13 [3], 4.1 nM	0.499	–
E13 [3], 12.3 nM	0.452	–
E13 [3], 37 nM	0.936	–
E13 [3], 111.1 nM	0.626	–
E13 [3], 333.3 nM	0.58	–
E13 [3], 1000 nM	1.09	–
E13 [3], 3000 nM	3.75	–
E13 [10], 4.1 nM	–	0.978
E13 [10], 12.3 nM	–	0.948
E13 [10], 37 nM	–	0.972
E13 [10], 111.1 nM	–	0.863
E13 [10], 333.3 nM	–	0.881
E13 [10], 1000 nM	–	0.849
E13 [10], 3000 nM	–	0.482
E21 [1], 4.1 nM	0.599	–
E21 [1], 12.3 nM	1.58	–
E21 [1], 37 nM	0.706	–
E21 [1], 111.1 nM	0.783	–
E21 [1], 333.3 nM	0.751	–
E21 [1], 1000 nM	1.37	–
E21 [1], 3000 nM	3.3	–
E21 [8], 4.1 nM	–	0.907
E21 [8], 12.3 nM	–	0.826
E21 [8], 37 nM	–	1.02
E21 [8], 111.1 nM	–	0.883
E21 [8], 333.3 nM	–	0.986
E21 [8], 1000 nM	–	0.78
E21 [8], 3000 nM	–	0.472
E28 [5], 4.1 nM	0.935	–
E28 [5], 12.3 nM	0.741	–
E28 [5], 37 nM	1.91	–
E28 [5], 111.1 nM	0.725	–
E28 [5], 333.3 nM	0.457	–
E28 [5], 1000 nM	0.886	–
E28 [5], 3000 nM	2.74	–
E28 [12], 4.1 nM	–	1.02
E28 [12], 12.3 nM	–	0.941
E28 [12], 37 nM	–	0.83
E28 [12], 111.1 nM	–	0.923
E28 [12], 333.3 nM	–	0.96
E28 [12], 1000 nM	–	0.837
E28 [12], 3000 nM	–	0.326
E31 [6], 4.1 nM	0.339	–
E31 [6], 12.3 nM	0.524	–
E31 [6], 37 nM	0.734	–
E31 [6], 111.1 nM	0.728	–
E31 [6], 333.3 nM	0.762	–
E31 [6], 1000 nM	1.01	–
E31 [6], 3000 nM	3.13	–
E31 [13], 4.1 nM	–	0.998
E31 [13], 12.3 nM	–	1.05
E31 [13], 37 nM	–	0.891
E31 [13], 111.1 nM	–	0.884
E31 [13], 333.3 nM	–	1.13
E31 [13], 1000 nM	–	0.96
E31 [13], 3000 nM	–	0.472
E34 [2], 4.1 nM	0.825	–
E34 [2], 12.3 nM	0.797	–
E34 [2], 37 nM	0.989	–
E34 [2], 111.1 nM	0.934	–
E34 [2], 333.3 nM	0.571	–
E34 [2], 1000 nM	1.16	–
E34 [2], 3000 nM	2.7	–
E34 [9], 4.1 nM	–	0.973
E34 [9], 12.3 nM	–	0.985
E34 [9], 37 nM	–	0.786
E34 [9], 111.1 nM	–	1.1
E34 [9], 333.3 nM	–	0.933
E34 [9], 1000 nM	–	0.88
E34 [9], 3000 nM	–	0.565
E57 [4], 4.1 nM	0.221	–
E57 [4], 12.3 nM	1.2	–
E57 [4], 37 nM	0.43	–
E57 [4], 111.1 nM	0.517	–
E57 [4], 333.3 nM	0.355	–
E57 [4], 1000 nM	0.883	–
E57 [4], 3000 nM	4.09	–
E57 [11], 4.1 nM	–	1.03
E57 [11], 12.3 nM	–	0.937
E57 [11], 37 nM	–	1.01
E57 [11], 111.1 nM	–	0.957
E57 [11], 333.3 nM	–	1.04
E57 [11], 1000 nM	–	0.857
E57 [11], 3000 nM	–	0.477
FT3469 [7], 4.1 nM	0.558	–
FT3469 [7], 12.3 nM	0.592	–
FT3469 [7], 37 nM	0.496	–
FT3469 [7], 111.1 nM	0.573	–
FT3469 [7], 333.3 nM	0.58	–
FT3469 [7], 1000 nM	0.774	–
FT3469 [7], 3000 nM	2.09	–
FT3469 [14], 4.1 nM	–	0.854
FT3469 [14], 12.3 nM	–	1.03
FT3469 [14], 37 nM	–	1.09
FT3469 [14], 111.1 nM	–	1.09
FT3469 [14], 333.3 nM	–	0.941
FT3469 [14], 1000 nM	–	0.891
FT3469 [14], 3000 nM	–	0.574

C[C@@H]1C[C@@H]([C@H](O)CC2CC(=O)NC(=O)C2)C(=O)[C@@H](C)C1 [Cycloheximide]
Conditions	phenotypic distance	surviving fraction
E13 [3], 4.1 nM	1.33	–
E13 [3], 12.3 nM	5.02	–
E13 [3], 37 nM	1.69	–
E13 [3], 111.1 nM	1.77	–
E13 [3], 333.3 nM	3.18	–
E13 [3], 1000 nM	3.1	–
E13 [3], 3000 nM	4.48	–
E13 [10], 4.1 nM	–	0.769
E13 [10], 12.3 nM	–	0.713
E13 [10], 37 nM	–	0.644
E13 [10], 111.1 nM	–	0.654
E13 [10], 333.3 nM	–	0.436
E13 [10], 1000 nM	–	0.408
E13 [10], 3000 nM	–	0.306
E21 [1], 4.1 nM	1.69	–
E21 [1], 12.3 nM	1.77	–
E21 [1], 37 nM	2.65	–
E21 [1], 111.1 nM	3.3	–
E21 [1], 333.3 nM	5.28	–
E21 [1], 1000 nM	4.65	–
E21 [1], 3000 nM	3.46	–
E21 [8], 4.1 nM	–	0.753
E21 [8], 12.3 nM	–	0.688
E21 [8], 37 nM	–	0.532
E21 [8], 111.1 nM	–	0.518
E21 [8], 333.3 nM	–	0.443
E21 [8], 1000 nM	–	0.356
E21 [8], 3000 nM	–	0.305
E28 [5], 4.1 nM	0.801	–
E28 [5], 12.3 nM	0.904	–
E28 [5], 37 nM	0.979	–
E28 [5], 111.1 nM	1.14	–
E28 [5], 333.3 nM	1.17	–
E28 [5], 1000 nM	1.95	–
E28 [5], 3000 nM	2.12	–
E28 [12], 4.1 nM	–	0.899
E28 [12], 12.3 nM	–	0.76
E28 [12], 37 nM	–	0.771
E28 [12], 111.1 nM	–	0.592
E28 [12], 333.3 nM	–	0.542
E28 [12], 1000 nM	–	0.346
E28 [12], 3000 nM	–	0.451
E31 [6], 4.1 nM	0.95	–
E31 [6], 12.3 nM	0.932	–
E31 [6], 37 nM	1.32	–
E31 [6], 111.1 nM	1.7	–
E31 [6], 333.3 nM	2.21	–
E31 [6], 1000 nM	2.11	–
E31 [6], 3000 nM	3	–
E31 [13], 4.1 nM	–	0.854
E31 [13], 12.3 nM	–	0.905
E31 [13], 37 nM	–	0.703
E31 [13], 111.1 nM	–	0.684
E31 [13], 333.3 nM	–	0.477
E31 [13], 1000 nM	–	0.297
E31 [13], 3000 nM	–	0.261
E34 [2], 4.1 nM	1.3	–
E34 [2], 12.3 nM	0.758	–
E34 [2], 37 nM	0.919	–
E34 [2], 111.1 nM	1.49	–
E34 [2], 333.3 nM	1.35	–
E34 [2], 1000 nM	2.05	–
E34 [2], 3000 nM	3.12	–
E34 [9], 4.1 nM	–	0.885
E34 [9], 12.3 nM	–	0.873
E34 [9], 37 nM	–	0.815
E34 [9], 111.1 nM	–	0.616
E34 [9], 333.3 nM	–	0.562
E34 [9], 1000 nM	–	0.584
E34 [9], 3000 nM	–	0.414
E57 [4], 4.1 nM	1.49	–
E57 [4], 12.3 nM	1.61	–
E57 [4], 37 nM	2.55	–
E57 [4], 111.1 nM	2.56	–
E57 [4], 333.3 nM	4.4	–
E57 [4], 1000 nM	4.89	–
E57 [4], 3000 nM	4.79	–
E57 [11], 4.1 nM	–	0.723
E57 [11], 12.3 nM	–	0.694
E57 [11], 37 nM	–	0.546
E57 [11], 111.1 nM	–	0.511
E57 [11], 333.3 nM	–	0.322
E57 [11], 1000 nM	–	0.323
E57 [11], 3000 nM	–	0.227
FT3469 [7], 4.1 nM	0.852	–
FT3469 [7], 12.3 nM	0.622	–
FT3469 [7], 37 nM	1.06	–
FT3469 [7], 111.1 nM	1.36	–
FT3469 [7], 333.3 nM	5.19	–
FT3469 [7], 1000 nM	1.49	–
FT3469 [7], 3000 nM	1.95	–
FT3469 [14], 4.1 nM	–	0.912
FT3469 [14], 12.3 nM	–	0.753
FT3469 [14], 37 nM	–	0.87
FT3469 [14], 111.1 nM	–	0.918
FT3469 [14], 333.3 nM	–	0.691
FT3469 [14], 1000 nM	–	0.723
FT3469 [14], 3000 nM	–	0.633
